# Results as given in patent US6495589B2, “Somatostatin antagonists and agonists that act at the SST subtype 2 receptor” (Pfizer Inc., priority 2000, dated 2002).
# Ends that are not written are not given here.
# System: GH4C1 cells
# Assay: Rat pituitary assay for somatostatin receptor antagonists (cAMP content of GH4C1 cells)
# Assay type: cell-based
# Details: 100 nM VIP as stimulus
# Description: This assay is designed to quantitate the activity of antagonists of somatostatin that interact directly at the somatostatin receptor. The assay facilitates discovery of agents which increase growth hormone secretion by modulating the inhibitory effects of somatostatin. As aforementioned, somatostatin (also abbreviated SRIF) inhibits GH secretion in the anterior pituitary by binding to a high affinity membrane-bound (and G-protein coupled) receptor which is coupled negatively to adenyl cyclase, thereby reducing intracellular levels of cAMP that would otherwise facilitate, for example, secretion/release of GH from cytoplasmic granules. […] The screen is designed to quantitate the ability of test agents to reverse SRIF's inhibition of the elevated intracellular cAMP levels produced by VIP.
# In particular, cyclic AMP (cAMP) content of the pituitary cell line GH4C1 was used to differentiate somatostatin agonists from antagonists. […] This afforded a convenient way to conduct a homogenous immunoradiometric assay of cAMP content in cells lysed in situ, following incubation of the cells with test compound. cAMP content in the GH4C1 cells was determined according to the manufacturer's instructions, by comparison with standards at concentrations from 10 to 1,000 nM cAMP. […]
# IC50 values are determined by polynomial regression and analzyed using a MACRO program. […]
substance,measurement,value
"VIP: Vasoactive intestinal peptide (Sigma V3628), endogenous peptide that stimulates GH secretion and activates adenylate cyclase (HSDAVFTDNYTRLRKQMAVKKYLNSILN-NH2; ends and bridges not checked; UniProt P01282 125-152, looked up)",cAMP content of the GH4C1 cells,increased
